The target of one data set is T1, p38α (Homo sapiens, UniProt Q16539).
T1 construct: c-myc (N); 6His (N); made in house; host or cells: E. coli (PET vectors)
The data set is described as follows: In vitro enzyme assay, p38 kinase inhibition. In kind it is biochemical. The note with it: read-out: IC50 against p38α. How it is done:
The ability of compounds of the invention to inhibit the enzyme p38 kinase was assessed. Activity of test compounds against each of the p38α and p38β isoforms of the enzyme was determined. […]
Test compounds were solubilised in DMSO and 10 μl of a 1:10 diluted sample in ‘Kinase Buffer’ was added to a well in a Microtiter plate. […] The precipitated protein was phosphorylated by p38 kinase and test compounds were assessed for their ability to inhibit this phosphorylation. The plates were filtered using a Canberra Packard Unifilter and washed with 2% TCA, dried overnight and counted on a Top Count scintillation counter.
Test compounds were tested initially at a single dose and active compounds were retested to allow IC50 values to be determined.

The subject of data set [1] is TNFα production by human peripheral blood mononuclear cells. The data set is described as follows: PBMC test: inhibition of LPS-stimulated TNFα production. In kind it is cell-based. How it is done:
The ability of compounds of this invention to inhibit TNFα production was assessed by using human peripheral blood mononuclear cells which synthesise and secrete TNFα when stimulated with lipopolysaccharide.
Peripheral blood mononuclear cells (PBMC) were isolated from heparinised (10 units/ml heparin) human blood by density centrifugation (Lymphoprep™; Nycomed). Mononuclear cells were resuspended in culture medium [RPMI 1640 medium (Gibco) supplemented with 50 units/ml penicillin, 50 μg/ml streptomycin, 2 mM glutamine and 1% heat-inactivated human AB serum (Sigma H-1513)]. Compounds were solubilised in DMSO at a concentration of 50 mM, diluted 1:100 in culture medium and subsequently serial dilutions were made in culture medium containing 1% DMSO. PBMCs (2.4×10^5 cells in 160 μl culture medium) were incubated with 20 μl of varying concentrations of test compound (triplicate cultures) or 20 μl culture medium containing 1% DMSO (control wells) for 30 minutes at 37° C. in a humidified (5% CO2/95% air) incubator (Falcon 3072; 96 well flat-bottom tissue culture plates). […] TNFα levels were determined in each sample using a human TNFα ELISA (see WO92/10190 and Current Protocols in Molecular Biology, vol 2 by Frederick M/Ausbel et al., John Wiley and Sons Inc.). […]

The subject of data set [2] is TNFα production by human whole blood. The data set is described as follows: Human Whole Blood test: inhibition of LPS-stimulated TNFα production. The class given is cell-based. How it is done: The ability of the compounds of this invention to inhibit TNFα production was also assessed in a human whole blood assay. Human whole blood secretes TNFα when stimulated with LPS. This property of blood forms the basis of an assay which is used as a secondary test for compounds which profile as active in the PBMC test.
Heparinised (10 units/ml) human blood was obtained from volunteers. 160 μl whole blood were added to 96 well round-bottom plates (Corning 25850). Compounds were solubilised and serially diluted in RPMI 1640 medium (Gibco) supplemented with 50 units/ml penicillin 50 μg/ml streptomycin and 2 mM glutamine, as detailed above. 20 μl of each test concentration was added to appropriate wells (triplicate cultures). 20 μl of RPMI 1640 medium supplemented with antibiotics and glutamine was added to control wells. Plates were incubated for 30 minutes at 37° C. (humidified incubator), prior to addition of 20 μl LPS (final concentration 10 μg/ml). RPMI 1640 medium was added to control wells. Six “LPS alone” and four “medium alone” controls were included on each plate. A known TNFα synthesis/secretion inhibitor was included in each test. Plates were incubated for 6 hours at 37° C. (humidified incubator). […] TNFα levels were measured by ELISA (see WO92/10190 and Current Protocols in Molecular Biology, vol 2 by Frederick M. Ausbel et al., John Wiley and Sons Inc.). […]

T1 sequence (Q16539 whole entry): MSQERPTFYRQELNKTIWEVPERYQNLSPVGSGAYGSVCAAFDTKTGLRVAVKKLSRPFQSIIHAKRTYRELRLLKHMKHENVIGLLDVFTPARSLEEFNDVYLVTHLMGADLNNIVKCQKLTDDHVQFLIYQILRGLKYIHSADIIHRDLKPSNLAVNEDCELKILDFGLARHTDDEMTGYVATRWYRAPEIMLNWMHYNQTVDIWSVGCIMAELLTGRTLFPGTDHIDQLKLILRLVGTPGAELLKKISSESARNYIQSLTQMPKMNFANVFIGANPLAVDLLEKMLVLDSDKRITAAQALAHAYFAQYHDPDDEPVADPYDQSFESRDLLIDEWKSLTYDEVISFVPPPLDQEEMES

For orientation: IC50 means the concentration at which inhibition is half-maximal. In the case of `COCCOc1ccc(C(=O)Nc2cc(NC(=O)c3ccc(C#N)cc3)ccc2C)cc1` [Example 8, N-[5-(4-cyanobenzamido)-2-methylphenyl]-4-(2-methoxyethoxy)benzamide], the IC50 on p38α was around 100 nM; in data set [1], around 3000 nM. In general, melting point refers to the temperature, or range, at which the solid turns liquid. In the case of `COc1ccc(C(=O)Nc2cc(NC(=O)c3ccc(N(C)CCCN(C)C)cc3)ccc2C)cc1OC` [Example 20, N-{5-[4-(N-(3-dimethylaminopropyl)-N-methylamino)benzamido]-2-methylphenyl}-3,4-dimethoxybenzamide], the melting point lay in the range of 164 to 165 °C. Still for that read-out and setting: the result for `Cc1ccc(NC(=O)c2cccc(N3CCOCC3)c2)cc1NC(=O)c1cccc(OC2CCNCC2)c1` [Example 25, N-[2-methyl-5-(3-morpholinobenzamido)phenyl]-3-piperidin4-yloxybenzamide] reads 162 to 166 °C; that for `CCCS(=O)(=O)Nc1cccc(C(=O)Nc2cc(NC(=O)c3cccc(N4CCOCC4)c3)ccc2C)c1` [Example 62, N-[2-methyl-5-(3-morpholinobenzamido)phenyl]-3-(N-ethylmethanesulphonylamino)benzamide], 192 to 193 °C. As for `Cc1ccc(NC(=O)c2cccc(N3CCOCC3)c2)cc1NC(=O)c1cccc(OCCN2CCCC2)c1` [Example 7, Compound No. 19, N-[2-methyl-5-(3-morpholinobenzamido)phenyl]-3-(2-pyrrolidin-1-ylethoxy)benzamide], the results for the IC50 (on p38α; in data set [1]; in data set [2]) were around 100 nM, around 1000 nM and around 6000 nM, respectively.

`Cc1ccc(NC(=O)c2cccc(N(C)C)c2)cc1NC(=O)c1cccc(NS(C)(=O)=O)c1` [Example 27, N-[5-(3-dimethylaminobenzamido)-2-methylphenyl]-3-methanesulphonylaminobenzamide] showed a melting point of 239 to 240 °C. With `COc1ccc(C(=O)Nc2cc(NC(=O)c3ccc(OCCCN4CCOCC4)cc3)ccc2C)cc1OC` [Example 5, Compound No. 3, N-{2-methyl-5-[4-(3-morpholinopropoxy)benzamido]phenyl}-3,4-dimethoxybenzamide], the melting point lay in the range of 148 to 149 °C. Compound `Cc1ccc(NC(=O)c2cccc(N(C)C)c2)cc1NC(=O)c1ccc(N(C)CCCN(C)C)cc1` [Example 36, N-[5-(3-dimethylaminobenzamido)-2-methylphenyl]-4-(3-dimethylamino-N-methylpropylamino)benzamide] displayed a melting point of 178 to 179 °C. In the case of `COc1ccc(C(=O)Nc2cc(NC(=O)c3ccc(OCCN4CCCC4)cc3)ccc2C)cc1OC` [Example 4, N-{5-[4-(2-pyrrolidin-1-ylethoxy)benzamido]-2-methylphenyl}-3,4-dimethoxybenzamide], the melting point fell in the range of 165 to 166 °C. Take `COc1ccc(C(=O)Nc2cc(NC(=O)c3ccc(OCCCCl)cc3)ccc2C)cc1OC` [Example 3, N-{5-[4-(3-chloropropoxy)benzamido]-2-methylphenyl}-3,4-dimethoxybenzamide]: the melting point was 186 to 187 °C.

`CCS(=O)(=O)Nc1cccc(C(=O)Nc2ccc(C)c(NC(=O)c3ccc(OC)c(OC)c3)c2)c1` [Example 26, N-{5-[3-(N-methylmethanesulphonylamino)benzamido]-2′-methylphenyl}-3,4-dimethoxybenzamide] registered a melting point of 168 to 169 °C. Still for that read-out and setting: in the case of `Cc1ccc(NC(=O)c2cccc(N(C)C)c2)cc1NC(=O)c1ccccc1NCCCN1CCOCC1` [Example 35, N-[5-(3-dimethylaminobenzamido)-2-methylphenyl]-2-(3-morpholinopropylamino)benzamide] it was 239 to 240 °C; in that of `COc1ccc(C(=O)Nc2cc(NC(=O)c3cccc(OCC(=O)O)c3)ccc2C)cc1OC` [Example 18, N-[5-(3-carboxymethoxybenzamido)-2-methylphenyl]-3,4-dimethoxybenzamide], 206 to 207 °C; in that of `COc1ccc(C(=O)Nc2cc(NC(=O)c3cccc(NS(C)(=O)=O)c3)ccc2C)cc1OC` [Example 1, N-[5-(3-methanesulphonylaminobenzamido)-2-methylphenyl]-3,4-dimethoxybenzamide], above 300 °C.
